These results are taken from patent US20200253506A1, “TREATMENT OF A DISEASE OF THE GASTROINTESTINAL TRACT WITH AN INTEGRIN INHIBITOR” (Progenity, Inc., priority 2016, published 2020).

A short description of the series: Tacrolimus tissue, plasma and GI content pharmacokinetics, oral vs intra-cecal ingestible device delivery. It counts as in vivo. The conditions noted are these: swine; intra-cecal compared to oral; 12 hours post-dose; FIG. 76. The procedure: No further randomization procedure was employed.
Animals in Group 1 received an ingestible device containing 0.8 mL of vehicle solution (80% alcohol, 20% HCO-60). Animals in Group 2 received orally […] liquid formulation of tacrolimus at 4 mg/0.8 mL per animal (Prograf: 5 mg/mL). Animals in Group 3 received intra-cecally an ingestible device containing tacrolimus at 1 mg in 0.8 mL per ingestible device. Animals in Group 4 received intra-cecally an ingestible device containing tacrolimus at 2 mg in 0.8 mL per ingestible device. Animals in Group 5 received intra-cecally an ingestible device containing tacrolimus at 4 mg in 0.8 mL per ingestible device. […]
Approximately 200-400 mg of rectal content were collected, if available, with a fecal swab (Copan Diagnostics Nylon Flocked Dry Swabs, 502CS01). The fecal swab was pre-weighed and weighed after collection in the collection tube (Sterile Tube and Cap No Media, PFPM913S), and the sample weight was recorded. […]
For tissue necropsy, small intestine fluid and cecal fluid were collected separately from all the animals into two separate square plastic bottles, and stored at −20° C. The length and diameter of the cecum and the colon was measured from one animal in each group and recorded for reference. […] All samples were weighed, and the tissue sample weights were recorded. […]

With `C=CC[C@@H]1/C=C(\C)C[C@H](C)C[C@H](OC)[C@H]2O[C@@](O)(C(=O)C(=O)N3CCCC[C@H]3C(=O)O[C@H](/C(C)=C/[C@@H]3CC[C@@H](O)[C@H](OC)C3)[C@H](C)[C@@H](O)CC1=O)[C@H](C)C[C@@H]2OC` [tacrolimus], the “mean concentration of tacrolimus in the cecum tissue and the proximate colon tissue” value is given as “higher”.
